SMILES strings stand for the structures. Where two headings read alike, the source gives them in different places.

The term Emax denotes the maximal effect, on the per cent scale that the assay sets. As a reminder, the EC50 is the concentration needed to bring the measured effect to its halfway point.

In this test the target is Recombinant human liver glucokinase (Homo sapiens (Human), UniProt P35557). Description: Glucokinase activation assay (G6PDH-coupled, Thio-NADH absorbance at 405 nm). The following applies: for EC50: 30° C. Format: biochemical. From the text:
The glucokinase activity can, for instance, be determined without directly measuring glucose-6-phosphate by measuring the amount of Thio-NADH generated during the production of phosphogluconolactone from glucose-6-phosphate by a reporter enzyme glucose-6-phosphate dehydrogenase.
To test the exemplified compounds, the following assay was employed. Recombinant human liver glucokinase was expressed as a FLAG fusion protein in E. coli, and purified on […] M2 AFFINITY GEL (Sigma). The assay was carried out at 30° C. in a 96-well plate. In the plate was distributed 69 μl each of assay buffer (25 mM Hepes Buffer: pH=7.2, 2 mM MgCl2, 1 mM ATP, 0.5 mM TNAD, 1 mM dithiothreitol), to which was added 1 μl of a DMSO solution of the compound or DMSO as control. Then, 20 μl of pre-ice-cooled enzyme mixture (FLAG-GK, 20 U/ml G6PDH) was distributed thereto, to which was added 10 μl of 25 mM glucose as substrate to initiate the reaction (final glucose concentration=2.5 mM). After starting the reaction, the absorbance at 405 nm was measured every 30 seconds for 10 minutes to evaluate the compound based on the initial increase for 5 minutes. FLAG-GK was added so that the increase of absorbance after 5 minutes fell between 0.05 to 0.1 in the presence of 1% DMSO.
The OD values of the respective compounds were measured in the respective concentrations, wherein the OD value of DMSO as control is regarded as 100%.

Sequence of Recombinant human liver glucokinase (P35557 other isoform, or with tags, fused parts or gaps): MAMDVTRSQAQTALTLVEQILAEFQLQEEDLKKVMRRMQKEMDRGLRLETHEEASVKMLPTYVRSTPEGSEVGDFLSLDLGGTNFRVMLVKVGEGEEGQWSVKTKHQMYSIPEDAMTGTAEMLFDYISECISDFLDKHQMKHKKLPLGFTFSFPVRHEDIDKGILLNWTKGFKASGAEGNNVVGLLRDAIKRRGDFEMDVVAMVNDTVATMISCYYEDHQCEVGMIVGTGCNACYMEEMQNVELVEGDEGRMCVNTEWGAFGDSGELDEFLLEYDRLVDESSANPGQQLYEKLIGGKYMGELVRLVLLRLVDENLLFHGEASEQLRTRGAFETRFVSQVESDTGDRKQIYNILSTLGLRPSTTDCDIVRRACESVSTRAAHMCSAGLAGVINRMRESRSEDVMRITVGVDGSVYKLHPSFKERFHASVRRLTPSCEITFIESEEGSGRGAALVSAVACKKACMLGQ

Turning to `COc1ccc(Sc2ccc(Sc3nncn3C)nc2C(=O)Nc2ccc(CC(N)=O)cc2)cc1` [Example 9, N-[4-(2-Amino-2-oxoethyl)phenyl]-3-[(4-methoxyphenyl)sulfanyl]-6-[(4-methyl-4H-1,2,4-triazol-3-yl)sulfanyl]pyridine-2-carboxamide], the Emax was 191%. Further, under “2.5 mM Glu”, the EC50 came out at 1890 nM.

`COC(=O)CCc1cnc(NC(=O)c2nc(Sc3ccccn3)ccc2Sc2ccc(OC)cc2)s1` [Example 14, Methyl 3-{2-[({3-[(4-methoxyphenyl)sulfanyl]-6-(pyridin-2-ylsulfanyl)pyridin-2-yl}carbonyl)amino]-1,3-thiazol-5-yl}propanoate]: the Emax was found to be 486%. Also, the EC50 (2.5 mM Glu) is 290 nM.

Regarding `Cn1cnnc1Sc1ccc(Sc2ccc(C(F)(F)F)cc2)c(C(=O)Nc2nc(CC(=O)O)c(Cl)s2)n1` [Example 42, (5-Chloro-2-{[(6-[(4-methyl-4H-1,2,4-triazol-3-yl)sulfanyl]-3-{[4-(trifluoromethyl)phenyl]sulfanyl}pyridin-2-yl)carbonyl]amino}-1,3-thiazol-4-yl)acetic acid], the Emax was determined as 466%. Under “2.5 mM Glu”, the EC50 turned out to be 44 nM.

Regarding `Cn1cnnc1Sc1ccc(Sc2ccc(Cl)c(Cl)c2)c(C(=O)Nc2nc(CC(=O)O)c(Cl)s2)n1` [Example 54, {5-Chloro-2-[({3-[(3,4-dichlorophenyl)sulfanyl]-6-[(4-methyl-4H-1,2,4-triazol-3-yl)sulfanyl]pyridin-2-yl}carbonyl)amino]-1,3-thiazol-4-yl}acetic acid], the Emax came to 523%. Besides, the EC50 (2.5 mM Glu) amounted to 23.3 nM.

Take `CCOC(=O)C(C)(C)CSc1cnc(NC(=O)c2nc(Sc3ccccn3)ccc2Sc2ccc(F)cc2)s1` [Example 37, Ethyl 3-({2-[({3-[(4-fluorophenyl)sulfanyl]-6-(pyridin-2-ylsulfanyl)pyridin-2-yl}carbonyl)amino]-1,3-thiazol-5-yl}sulfanyl)-2,2-dimethylpropanoate]: the Emax amounted to 450%. Moreover, the EC50 (2.5 mM Glu) was found to be 129 nM.

Take `COc1ccc(Sc2ccc(Sc3nncn3C)nc2C(=O)Nc2ncc(SCC(=O)O)s2)cc1` [Example 2, ({2-[({3-[(4-methoxyphenyl)sulfanyl]-6-[(4-methyl-4H-1,2,4-triazol-3-yl)sulfanyl]pyridin-2-yl}carbonyl)amino]-1,3-thiazol-5-yl}sulfanyl)acetic acid]: the Emax worked out at 446%. Further, the EC50 (2.5 mM Glu) was 56.8 nM.

On to `Cn1cnnc1Sc1ccc(Sc2ccc(Cl)c(Cl)c2)c(C(=O)Nc2ncc(SCC(=O)O)s2)n1` [Example 52, ({2-[({3-[(3,4-Dichlorophenyl)sulfanyl]-6-[(4-methyl-4H-1,2,4-triazol-3-yl)sulfanyl]pyridin-2-yl}carbonyl)amino]-1,3-thiazol-5-yl}sulfanyl)acetic acid], for which the Emax came to 431%. Under “2.5 mM Glu”, the EC50 turned out to be 16.6 nM.

Consider `CCOC(=O)CSc1cnc(NC(=O)c2nc(Sc3ccc(F)cc3)ccc2Sc2ccc(F)cc2)s1` [Example 27], for which the Emax worked out at 182%.

In the case of `Cn1cnnc1Sc1ccc(Sc2ccc(F)cc2)c(C(=O)Nc2ncc(SCC(=O)O)s2)n1` [Example 19, ({2-[({3-[(4-Fluorophenyl)sulfanyl]-6-[(4-methyl-4H-1,2,4-triazol-3-yl)sulfanyl]pyridin-2-yl}carbonyl)amino]-1,3-thiazol-5-yl}sulfanyl)acetic acid], the Emax stood at 426%. In addition, the EC50 (2.5 mM Glu) was determined as 23.1 nM.

For the compound `CCOC(=O)C(C)(C)CSc1cnc(NC(=O)c2nc(Sc3nncn3C)ccc2Sc2ccc(F)cc2)s1` [Example 20], the Emax came out at 460%.

As for `Cn1cnnc1Sc1ccc(Sc2ccc(F)cc2)c(C(=O)Nc2ncc(SCC(C)(C)C(=O)O)s2)n1` [Example 21, 3-({2-[({3-[(4-Fluorophenyl)sulfanyl]-6-[(4-methyl-4H-1,2,4-triazol-3-yl)sulfanyl]pyridin-2-yl}carbonyl)amino]-1,3-thiazol-5-yl}sulfanyl)-2,2-dimethylpropanoic acid], the maximum response (Emax) came to 473%. The EC50 (2.5 mM Glu) came out at 17.2 nM.

Turning to `CCOC(=O)Cc1nc(NC(=O)c2nc(Sc3nncn3C)ccc2Sc2ccc(Cl)c(Cl)c2)sc1Cl` [Example 53, Ethyl {5-chloro-2-[({3-[(3,4-dichlorophenyl)sulfanyl]-6-[(4-methyl-4H-1,2,4-triazol-3-yl)sulfanyl]pyridin-2-yl}carbonyl)amino]-1,3-thiazol-4-yl}acetate], the Emax turned out to be 426%. Also, the EC50 (2.5 mM Glu) was 7.6 nM.

On to `COc1ccc(Sc2ccc(Sc3ccccn3)nc2C(=O)Nc2ncc(SCC(=O)O)s2)cc1` [Example 11, ({2-[({3-[(4-Methoxyphenyl)sulfanyl]-6-(pyridin-2-ylsulfanyl)pyridin-2-yl}carbonyl)amino]-1,3-thiazol-5-yl}sulfanyl)acetic acid], for which the Emax came out at 509%. Besides, where the note is “2.5 mM Glu”, the EC50 came out at 10.9 nM.

Consider `CC(C)(CSc1cnc(NC(=O)c2nc(Sc3ccccn3)ccc2Sc2ccc(F)cc2)s1)C(=O)O` [Example 38, 3-({2-[({3-[(4-Fluorophenyl)sulfanyl]-6-(pyridin-2-ylsulfanyl)pyridin-2-yl}carbonyl)amino]-1,3-thiazol-5-yl}sulfanyl)-2,2-dimethylpropanoic acid], for which the Emax was found to be 550%. The EC50 (2.5 mM Glu) worked out at 32 nM.

As for `CCOC(=O)Cc1nc(NC(=O)c2nc(Sc3ccccn3)ccc2Sc2ccc(F)cc2)sc1Cl` [Example 31, Ethyl {5-chloro-2-[({3-[(4-fluorophenyl)sulfanyl]-6-(pyridin-2-ylsulfanyl)pyridin-2-yl}carbonyl)amino]-1,3-thiazol-4-yl}acetate], the Emax was 436%. The EC50 (2.5 mM Glu) is 127 nM.

Take `COc1ccc(Sc2ccc(Sc3nncn3C)nc2C(=O)Nc2ncc(SC(C)(C)C(=O)O)s2)cc1` [Example 4, 2-({2-[({3-[(4-methoxyphenyl)sulfanyl]-6-[(4-methyl-4H-1,2,4-triazol-3-yl)sulfanyl]pyridin-2-yl}carbonyl)amino]-1,3-thiazol-5-yl}sulfanyl)-2-methylpropanoic acid]: the Emax came to 417%. The EC50 (2.5 mM Glu) is 65.1 nM.

As for `CCOC(=O)CSc1cnc(NC(=O)c2nc(Sc3ccccn3)ccc2Sc2ccc(OC)cc2)s1` [Example 10, Ethyl ({2-[({3-[(4-methoxyphenyl)sulfanyl]-6-(pyridin-2-ylsulfanyl)pyridin-2-yl}carbonyl)amino]-1,3-thiazol-5-yl}sulfanyl)acetate], the EC50 (2.5 mM Glu) is 35.2 nM. In addition, the Emax (2.5 mM Glu, OD value of DMSO as control regarded as 100%, read-out: Emax) amounted to 498%.

In the case of `CCOP(=O)(Cc1cnc(NC(=O)c2nc(Sc3nncn3C)ccc2Sc2ccc(Cl)c(Cl)c2)s1)OCC` [Example 50], the Emax was found to be 379%. For the setting “2.5 mM Glu”, the EC50 came to 57.1 nM.

Regarding `CCOC(=O)Cc1nc(NC(=O)c2nc(Sc3nncn3C)ccc2Sc2ccc(F)cc2)sc1Cl` [Example 24, Ethyl {5-chloro-2-[({3-[(4-fluorophenyl)sulfanyl]-6-[(4-methyl-4H-1,2,4-triazol-3-yl)sulfanyl]pyridin-2-yl}carbonyl)amino]-1,3-thiazol-4-yl}acetate], the Emax is 378%. The concentration giving a half-maximal response (EC50) (2.5 mM Glu) is 8 nM.

With `COc1ccc(Sc2ccc(Sc3nncn3C)nc2C(=O)Nc2ncc(SCC(C)(C)C(=O)O)s2)cc1` [Example 6, 3-({2-[({3-[(4-methoxyphenyl)sulfanyl]-6-[(4-methyl-4H-1,2,4-triazol-3-yl)sulfanyl]pyridin-2-yl}carbonyl)amino]-1,3-thiazol-5-yl}sulfanyl)-2,2-dimethylpropanoic acid], the Emax was 425%. Besides, for the setting “2.5 mM Glu”, the EC50 came to 16 nM.

Take `CCOC(=O)Cc1nc(NC(=O)c2nc(Sc3ccccn3)ccc2Sc2ccc(OC)cc2)sc1Cl` [Example 12]: the Emax was 427%. The concentration giving a half-maximal response (EC50) (2.5 mM Glu) is 47.6 nM.

With `Cn1cnnc1Sc1ccc(Sc2ccc(C(F)(F)F)cc2)c(C(=O)Nc2nc(CC(=O)O)cs2)n1` [Example 47, (2-{[(6-[(4-Methyl-4H-1,2,4-triazol-3-yl)sulfanyl]-3-{[4-(trifluoromethyl)phenyl]sulfanyl}pyridin-2-yl)carbonyl]amino}-1,3-thiazol-4-yl)acetic acid], the Emax is 633%. For the same compound, the EC50 (2.5 mM Glu) amounted to 222 nM.

For the compound `COc1ccc(Sc2ccc(Sc3nncn3C)nc2C(=O)Nc2ncc(CCC(=O)O)s2)cc1` [Example 8, 3-{2-[({3-[(4-Methoxyphenyl)sulfanyl]-6-[(4-methyl-4H-1,2,4-triazol-3-yl)sulfanyl]pyridin-2-yl}carbonyl)amino]-1,3-thiazol-5-yl}propanoic acid], the Emax worked out at 626%. The EC50 (2.5 mM Glu) turned out to be 58.7 nM.

Turning to `O=C(O)Cc1nc(NC(=O)c2nc(Sc3ccc(F)cc3)ccc2Sc2ccc(F)cc2)sc1Cl` [Example 30, {2-[({3,6-Bis[(4-fluorophenyl)sulfanyl]pyridin-2-yl}carbonyl)amino]-5-chloro-1,3-thiazol-4-yl}acetic acid], the Emax amounted to 393%. Further, the EC50 (2.5 mM Glu) was found to be 16.3 nM.

Consider `CCOC(=O)CSc1cnc(NC(=O)c2nc(Sc3ccccn3)ccc2Sc2ccc(F)cc2)s1` [Example 35, Ethyl ({2-[({3-[(4-fluorophenyl)sulfanyl]-6-(pyridin-2-ylsulfanyl)pyridin-2-yl}carbonyl)amino]-1,3-thiazol-5-yl}sulfanyl)acetate], for which the Emax came out at 504%. The EC50 (2.5 mM Glu) came out at 83.8 nM.

The record behind these values is patent US9527838B2, “2-pyridinecarboxamide derivatives, compositions containing such compounds, and methods of treatment” (priority 2012, dated 2016).
